Patent US10364245B2 (CHIESI FARMACEUTICI S.p.A., priority 2017, dated 2019)
Structures can show the parent of a compound that is named as a salt.

molecular target: T1, p38 alpha (Homo sapiens, UniProt Q16539); assay: P38 alpha enzyme inhibition assay (Alphascreen kinase activity assay); type: biochemical; conditions: 100 pM p38 alpha, 2 hours preincubation at 25° C., 250 μM ATP, ATF-2 fusion protein; read-out: p38α inhibition
T1 construct: purchased Invitrogen PV3304
Method: P38 Alpha Enzyme Inhibition Assay
The inhibitory activity of compounds was determined using an Alphascreen® (Perkin Elmer) based kinase activity assay. Kinase reactions consisted of 25 mM HEPES pH 7.5, 10 mM MgCl2, 100 μM Na3VO4, 2 mM DTT, 0.05 mg/ml Tween 20, 100 pM p38 alpha (Invitrogen, PV3304), 1% DMSO and 0.3 μg/ml ATF-2 fusion protein (New England Biolabs, 9224). Compounds were incubated under these conditions for 2 hours, at 25° C., prior to the initiation of the kinase activity by the addition of the 250 μM ATP. Reaction volumes were 20 μL. After 1 hr at 25° C. reactions were stopped by the adding 10 μL of 25 mM HEPES pH 7.5 containing 62.5 mM EDTA, 0.05% Triton X-100, 10% BSA and 0.83 ng/uL anti-phospho-ATF2 antibody (Abcam, ab28812). Detection was performed by measuring luminescence following the addition of Alphascreen Donor beads (Perkin Elmer 6765300) and Protein A Alphascreen Acceptor beads (Perkin Elmer 6760137), both at a final concentration of 20 ug/ml. IC50 values were determined from concentration-response curves.

T1 sequence (Q16539 whole entry, the tested form may be a part): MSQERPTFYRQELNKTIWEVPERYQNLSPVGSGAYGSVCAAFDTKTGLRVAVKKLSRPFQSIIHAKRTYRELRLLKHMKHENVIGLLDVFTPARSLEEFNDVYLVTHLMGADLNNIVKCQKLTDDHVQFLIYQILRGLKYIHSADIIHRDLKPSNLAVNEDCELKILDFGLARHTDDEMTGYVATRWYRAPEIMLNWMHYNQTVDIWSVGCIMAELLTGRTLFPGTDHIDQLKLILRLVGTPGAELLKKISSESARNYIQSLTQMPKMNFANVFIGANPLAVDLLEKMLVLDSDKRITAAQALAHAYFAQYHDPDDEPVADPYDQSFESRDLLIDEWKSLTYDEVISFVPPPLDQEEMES

| IC50 | SMILES |
| --- | --- |
| 1 to 10 nM | COCC(C)(C)c1nnc2ccc(O[C@@H]3CC[C@H](NC(=O)Nc4cc(C(C)(C)C)nc(C(=O)NCC5(N(C)C)CCOCC5)n4)c4ccccc43)cn12 [Example 150, 4-(tert-butyl)-N-((4-(dimethylamino)-tetrahydro-2H-pyran-4-yl)methyl)-6-(3-((1S,4R)-4-((3-(1-methoxy-2-methylpropan-2-yl)-[1,2,4]triazolo[4,3-a]pyridin-6-yl)oxy)-1,2,3,4-tetrahydronaphthalen-1-yl)ureido)pyrimidine-2-carboxamide] |
| 1 to 10 nM | COC(C)(C)c1nnc2ccc(O[C@@H]3CC[C@H](NC(=O)Nc4cc(C(C)(C)C)nc(C(=O)NCC(C)(C)N5CCN(C)CC5)n4)c4ccccc43)cn12 [Example 157, 4-(tert-butyl)-6-(3-((1S,4R)-4-((3-(2-methoxypropan-2-yl)-[1,2,4]triazolo[4,3-a]pyridin-6-yl)oxy)-1,2,3,4-tetrahydronaphthalen-1-yl)ureido)-N-(2-methyl-2-(4-methylpiperazin-1-yl)propyl)pyrimidine-2-carboxamide] |
| 1 to 10 nM | CN(C)C1(CNC(=O)c2nc(NC(=O)N[C@H]3CC[C@@H](Oc4ccc5nnc(C(C)(C)C)n5c4)c4ccccc43)cc(C(C)(C)C)n2)CCOCC1 [Example 160, 4-(tert-butyl)-6-(3-((1S,4R)-4-((3-(tert-butyl)-[1,2,4]triazolo[4,3-a]pyridm-6-yl)oxy)-1,2,3,4-tetrahydronaphthalen-1-yl)ureido)-N-((4-(dimethylamino)-tetrahydro-2H-pyran-4-yl)methyl)pyrimidine-2-carboxamide] |
| 1 to 10 nM | CN(C)C1(CNC(=O)c2nc(NC(=O)N[C@H]3CC[C@@H](Oc4ccc5nnc(C(C)(C)C)n5c4)c4ccccc43)cc(C(C)(C)C)n2)CCCCC1 [Example 161, 4-(tert-butyl)-6-(3-((1S,4R)-4-((3-(tert-butyl)-[1,2,4]-triazolo[4,3-a]pyridin-6-yl)oxy)-1,2,3,4-tetrahydronaphthalen-1-yl)ureido)-N-((1-(dimethylamino)-cyclohexyl)methyl)pyrimidine-2-carboxamide] |
| 1 to 10 nM | CN(C)[C@H]1CCCC[C@@H]1NC(=O)c1nc(NC(=O)N[C@H]2CC[C@@H](Oc3ccc4nnc(C(C)(C)C)n4c3)c3ccccc32)cc(C(C)(C)C)n1 [Example 165, 4-(tert-butyl)-6-(3-((1S,4R)-4-((3-(tert-butyl)-[1,2,4]triazolo[4,3-a]pyridin-6-yl)oxy)-1,2,3,4-tetrahydronaphthalen-1-yl)ureido)-N-((1S,2S)-2-(dimethylamino)-cyclohexyl)pyrimidine-2-carboxamide] |
| 1 to 10 nM | COC1CN(C(C)(C)CNC(=O)c2nc(NC(=O)N[C@H]3CC[C@@H](Oc4ccc5nnc(C(C)(C)C)n5c4)c4ccccc43)cc(C(C)(C)C)n2)C1 [Example 170, 4-(tert-butyl)-6-(3-((1S,4R)-4-((3-(tert-butyl)-[1,2,4]triazolo[4,3-a]pyridin-6-yl)oxy)-1,2,3,4-tetrahydronaphthalen-1-yl)ureido)-N-(2-(3-methoxyazetidin-1-yl)-2-methylpropyl)pyrimidine-2-carboxamide] |
| 1 to 10 nM | COC(C)(C)c1nnc2ccc(O[C@@H]3CC[C@H](NC(=O)Nc4cc(C(=O)NCCN(C)C)nc(C(C)(C)C)c4)c4ccccc43)cn12 [Example 185, 6-(tert-butyl)-N-(2-(dimethylamino)ethyl)-4-(3-((1S,4R)-4-((3-(2-methoxypropan-2-yl)-[1,2,4]triazolo[4,3-a]pyridin-6-yl)oxy)-1,2,3,4-tetrahydronaphthalen-1-yl)ureido)picolinamide] |

Second part, the compound before the results:

| SMILES | IC50 |
| --- | --- |
| COCC(C)(C)c1nnc2ccc(O[C@@H]3CC[C@H](NC(=O)Nc4cc(C(C)(C)C)nc(C(=O)NCC5(N(C)C)CCCCC5)n4)c4ccccc43)cn12 [Example 153, 4-(tert-butyl)-N-((1-(dimethylamino)cyclohexyl)methyl)-6-(3-((1S,4R)-4-((3-(1-methoxy-2-methylpropan-2-yl)-[1,2,4]triazolo[4,3-a]pyridin-6-yl)oxy)-1,2,3,4-tetrahydronaphthalen-1-yl)ureido)pyrimidine-2-carboxamide] | 1 to 10 nM |
| CCN(C)C(C)(C)CNC(=O)c1nc(NC(=O)N[C@H]2CC[C@@H](Oc3ccc4nnc(C(C)(C)OC)n4c3)c3ccccc32)cc(C(C)(C)C)n1 [Example 156, 4-(tert-butyl)-N-(2-(ethyl(methyl)amino)-2-methylpropyl)-6-(3-((1S,4R)-4-((3-(2-methoxypropan-2-yl)-[1,2,4]triazolo[4,3-a]pyridin-6-yl)oxy)-1,2,3,4-tetrahydronaphthalen-1-yl)ureido)pyrimidine-2-carboxamide] | 1 to 10 nM |
| CN(C)C1(CNC(=O)c2nc(NC(=O)N[C@H]3CC[C@@H](Oc4ccc5nnc(C(C)(C)C)n5c4)c4ccccc43)cc(C(C)(C)C)n2)CCC1 [Example 162, 4-(tert-butyl)-6-(3-((1S,4R)-4-((3-(tert-butyl)-[1,2,4]triazolo[4,3-a]pyridin-6-yl)oxy)-1,2,3,4-tetrahydronaphthalen-1-yl)ureido)-N-((1-(dimethylamino)-cyclobutyl)methyl)pyrimidine-2-carboxamide] | 1 to 10 nM |
| CN(C)C1(CNC(=O)c2nc(NC(=O)N[C@H]3CC[C@@H](Oc4ccc5nnc(C(C)(C)C)n5c4)c4ccccc43)cc(C(C)(C)C)n2)CCCC1 [Example 163, 4-(tert-butyl)-6-(3-((1S,4R)-4-((3-(tert-butyl)-[1,2,4]-triazolo[4,3-a]pyridin-6-yl)oxy)-1,2,3,4-tetrahydronaphthalen-1-yl)ureido)-N-((1-(dimethylamino)-cyclopentyl)methyl)-pyrimidine-2-carboxamide] | 1 to 10 nM |
| CN(CCNC(=O)c1nc(NC(=O)N[C@H]2CC[C@@H](Oc3ccc4nnc(C(C)(C)C)n4c3)c3ccccc32)cc(C(C)(C)C)n1)C1CC1 [Example 164, 4-(tert-butyl)-6-(3-((1S,4R)-4-((3-(tert-butyl)-[1,2,4]triazolo[4,3-a]pyridin-6-yl)oxy)-1,2,3,4-tetrahydronaphthalen-1-yl)ureido)-N-(2-(cyclopropyl(methyl)-amino)ethyl)pyrimidine-2-carboxamide] | 1 to 10 nM |
| COC1CN(CCNC(=O)c2nc(NC(=O)N[C@H]3CC[C@@H](Oc4ccc5nnc(C(C)(C)OC)n5c4)c4ccccc43)cc(C(C)(C)C)n2)C1 [Example 167, 4-(tert-butyl)-N-(2-(3-methoxyazetidin-1-yl)ethyl)-6-(3-((1S,4R)-4-((3-(2-methoxypropan-2-yl)-[1,2,4]triazolo[4,3-a]pyridin-6-yl)oxy)-1,2,3,4-tetrahydronaphthalen-1-yl)ureido)pyrimidine-2-carboxamide] | 1 to 10 nM |
| CCC(CC)(CNC(=O)c1nc(NC(=O)N[C@H]2CC[C@@H](Oc3ccc4nnc(C(C)(C)C)n4c3)c3ccccc32)cc(C(C)(C)C)n1)N(C)C [Example 168, 4-(tert-butyl)-6-(3-((1S,4R)-4-((3-(tert-butyl)-[1,2,4]triazolo[4,3-a]pyridin-6-yl)oxy)-1,2,3,4-tetrahydronaphthalen-1-yl)ureido)-N-(2-(dimethylamino)-2-ethylbutyl)pyrimidine-2-carboxamide] | 1 to 10 nM |
| COC1CN(C(C)(C)CNC(=O)c2nc(NC(=O)N[C@H]3CC[C@@H](Oc4ccc5nnc(C(C)(C)OC)n5c4)c4ccccc43)cc(C(C)(C)C)n2)C1 [Example 172, 4-(tert-butyl)-N-(2-(3-methoxyazetidin-1-yl)-2-rnethylpropyl)-6-(3-((1S,4R)-4-((3-(2-methoxypropan-2-yl)-[1,2,4]triazolo[4,3-a]pyridin-6-yl)oxy)-1,2,3,4-tetrahydronaphthalen-1-yl)ureido)pyrimidine-2-carboxamide] | 1 to 10 nM |
| COCCN(C)C(C)(C)CNC(=O)c1nc(NC(=O)N[C@H]2CC[C@@H](Oc3ccc4nnc(C(C)(C)C)n4c3)c3ccccc32)cc(C(C)(C)C)n1 [Example 177, 4-(tert-butyl)-6-(3-((1S,4R)-4-((3-(tert-butyl)-[1,2,4]triazolo[4,3-a]pyridin-6-yl)oxy)-1,2,3,4-tetrahydronaphthalen-1-yl)ureido)-N-(2-((2-methoxyethyl)(methyl)-amino)-2-methylpropyl)pyrimidine-2-carboxamide] | 1 to 10 nM |
| COCCN(C)C(C)(C)CNC(=O)c1nc(NC(=O)N[C@H]2CC[C@@H](Oc3ccc4nnc(C(C)(C)OC)n4c3)c3ccccc32)cc(C(C)(C)C)n1 [Example 179, 4-(tert-butyl)-N-(2-((2-methoxyethyl)(methyl)amino)-2-methylmpropyl)-6-(3-((1S,4R)-4-((3-(2-methoxypropan-2-yl)-[1,2,4]triazolo[4,3-a]pyridin-6-yl)oxy)-1,2,3,4-tetrahydronaphthalen-1-yl)ureido)pyrimidine-2-carboxamide] | 1 to 10 nM |
| CCOC(C)(C)c1nnc2ccc(O[C@@H]3CC[C@H](NC(=O)Nc4cc(C(C)(C)C)nc(C(=O)NCCN(C)C)n4)c4ccccc43)cn12 [Example 180, 4-(tert-Butyl)-N-(2-(dimethylamino)ethyl)-6-(3-((1S,4R)-4-((3-(2-ethoxypropan-2-yl)-[1,2,4]triazolo[4,3-a]pyridin-6-yl)oxy)-1,2,3,4-tetrahydronaphthalen-1-yl)ureido)pyrimidine-2-carboxamide formate salt] | 1 to 10 nM |
